Laboratory results as given in patent US7910141B2, “Antiallergic composition” (Sapporo Breweries Limited, priority 2005, dated 2011).
Where a name gives a salt, the structure may show the parent alone.

Test system: ICR mice
Assay: DNP-HSA-induced auricular edema in mice (passive cutaneous anaphylaxis)
Assay type: in vivo, mouse
Conditions: FIG. 8 experiment
Method: Inhibiting Action of Hop Water Extract on DNP-HSA-Induced Auricular Edema in Mice: • Six-week-old ICR mice (male or female; Charles River Laboratories, Japan Inc.) were separated into 4-5 per cage and raised at room temperature (24±2° C.) and 55±15% humidity, with a 12 hour light/dark cycle (light: 8:00-20:00). After preparatory rearing for at least one week, they were provided for the test. A hop pellet water extract, hop leaf water extract or ketotifen fumarate aqueous solution (10 mL/kg) was forcedly administered orally to each test group, while 10 mL/kg of distilled water was forcedly administered orally to the control group. The hop pellet water extract was prepared by adding hop pellets (Czech Saaz) to distilled water to 10% (w/w) and extracting overnight at 4° C., and then centrifuging at 3000 rpm for 10 minutes and filtering. The hop leaf water extract was prepared by adding dry hop leaves (Kokusan hop young leaves) to distilled water to 10% (w/w) and extracting overnight at 4° C., and then centrifuging at 3000 rpm for 10 minutes and filtering. The ketotifen fumarate aqueous solution was prepared by dissolving in distilled water to a concentration of 0.5 mg/mL.
At 1 hour after oral administration, 20 μL of 10 μg/mL mouse anti-DNP-IgE antibody (Sigma) was intradermally injected into one auricle of each mouse, while 20 μL of physiological saline (PS) was intradermally injected into the other auricle. […] The auricular thickness before antigen administration and 30 minutes after antigen administration was measured three times each using a thickness gauge, and the auricular edema ratio and auricular thickness increase were determined. […] The auricular edema ratio (%) was calculated by the formula: (Mean auricular thickness 30 minutes after antigen administration−mean auricular thickness before antigen administration)×100/mean auricular thickness […], and the auricular thickness increase (mm) was calculated by the formula: Mean auricular thickness 30 minutes after antigen administration−mean auricular thickness before antigen administration.

[1] = oral 10 mL/kg, intradermal injection of IgE antibody, 30 minutes after antigen

CN1CCC(=C2c3ccccc3CC(=O)c3sccc32)CC1 [ketotifen fumarate]
auricular edema ratio compared to the distilled water-administered group (t-test) (ketotifen p<0.05, hop extracts p value of 0.08, critical region 5%): significantly inhibited
auricular edema ratio [1]: 12.7±5.4%
auricular thickness increase [1]: 0.045±0.020 mm
